The text below walks through data of patent US8461328B2, “Tricyclic heterocyclic compounds, compositions and methods of use thereof” (Genentech, Inc., priority 2010, dated 2013).

What is called Ki is a measure of affinity in units of concentration, obtained from inhibition or displacement.

What all share (assay type): biochemical
One assay addresses T1, JAK1 (Homo sapiens, UniProt P23458).
T1 construct: made in house; host or cells: SF9 insect cells (baculovirus)
As to the kind of experiment: JAK1 inhibition (Table 4). Particulars: read-out: JAK1 Ki.

The next assay concerns the target T2, JAK3 (Homo sapiens, UniProt P52333).
T2 construct: made in house; host or cells: SF9 insect cells (baculovirus)
Put plainly: JAK3 inhibition (Table 4). The settings on record: read-out: JAK3 Ki.

In the next assay the target is T3, JAK2 (Homo sapiens, UniProt O60674).
T3 construct: made in house; host or cells: SF9 insect cells (baculovirus)
Put plainly: JAK2 inhibition (Table 4). The settings on record: read-out: JAK2 Ki.

A further assay addresses T4, TYK2 (Homo sapiens, UniProt P29597).
T4 construct: made in house; host or cells: SF9 insect cells (baculovirus)
T4 sequence (P29597 873-1187): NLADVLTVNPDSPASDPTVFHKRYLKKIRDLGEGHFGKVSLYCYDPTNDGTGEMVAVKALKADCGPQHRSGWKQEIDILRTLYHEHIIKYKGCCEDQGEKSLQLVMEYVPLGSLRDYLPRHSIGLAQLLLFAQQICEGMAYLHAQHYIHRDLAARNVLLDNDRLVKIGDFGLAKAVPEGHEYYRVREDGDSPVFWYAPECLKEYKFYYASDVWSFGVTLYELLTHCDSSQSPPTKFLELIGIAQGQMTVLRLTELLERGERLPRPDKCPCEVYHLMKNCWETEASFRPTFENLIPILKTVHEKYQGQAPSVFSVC
As to the kind of experiment: TYK2 inhibition (Table 4).

T3 sequence (O60674 812-1132): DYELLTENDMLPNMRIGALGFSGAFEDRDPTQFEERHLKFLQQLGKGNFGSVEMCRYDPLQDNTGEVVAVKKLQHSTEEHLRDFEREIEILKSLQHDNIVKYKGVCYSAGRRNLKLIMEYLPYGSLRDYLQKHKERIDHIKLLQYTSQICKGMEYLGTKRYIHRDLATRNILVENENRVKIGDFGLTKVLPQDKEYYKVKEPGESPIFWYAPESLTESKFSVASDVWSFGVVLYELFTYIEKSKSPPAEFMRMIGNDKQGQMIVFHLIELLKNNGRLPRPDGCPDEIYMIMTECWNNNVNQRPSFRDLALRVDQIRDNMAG
T2 sequence (P52333 783-1124): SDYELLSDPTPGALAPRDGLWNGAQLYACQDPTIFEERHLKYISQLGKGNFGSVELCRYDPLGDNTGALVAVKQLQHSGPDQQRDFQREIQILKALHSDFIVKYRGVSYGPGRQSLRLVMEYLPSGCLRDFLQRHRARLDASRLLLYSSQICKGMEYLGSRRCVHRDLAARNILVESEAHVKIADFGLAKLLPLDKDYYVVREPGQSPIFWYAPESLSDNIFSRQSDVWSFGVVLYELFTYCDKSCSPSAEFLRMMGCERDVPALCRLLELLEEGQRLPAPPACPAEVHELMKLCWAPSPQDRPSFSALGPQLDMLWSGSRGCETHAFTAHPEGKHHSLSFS
T1 sequence (P23458 852-1154): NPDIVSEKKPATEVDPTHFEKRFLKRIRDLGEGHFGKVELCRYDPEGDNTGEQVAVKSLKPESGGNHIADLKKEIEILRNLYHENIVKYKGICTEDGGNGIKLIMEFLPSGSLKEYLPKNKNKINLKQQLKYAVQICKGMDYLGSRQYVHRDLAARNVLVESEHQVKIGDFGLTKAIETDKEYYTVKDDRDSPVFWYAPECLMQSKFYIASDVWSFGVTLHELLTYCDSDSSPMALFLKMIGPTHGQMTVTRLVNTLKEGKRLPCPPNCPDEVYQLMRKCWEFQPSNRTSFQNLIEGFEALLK

In the case of `OC1(C2CC2)CCC(n2cnc3cnc4[nH]ccc4c32)CC1` (stereo not drawn) [Example 996, Cis-1-Cyclopropyl-4-(6H-1,3,5,6-tetraaza-as-indacen-1-yl)-cyclohexanol], the Ki on JAK1 was 2.01 nM; at JAK3 it was 50.8 nM; on JAK2 it was 3.85 nM; at TYK2, 9.23 nM.
Consider `C[C@@H](O)c1nc2cnc3[nH]ccc3c2n1C1CCC(CC#N)CC1` (stereo partly drawn) [Example 1001, {4-[2-((R)-1-Hydroxy-ethyl)-6H-1,3,5,6-tetraaza-as-indacen-1-yl]-cyclohexyl}-acetonitrile], for which the Ki at JAK1 stood at 1.15 nM; at JAK3, 16.7 nM; at JAK2 it was 13 nM; on TYK2 it was 2.22 nM.
The like results for `C[C@@H](O)c1nc2cnc3[nH]ccc3c2n1C1CCC(NCC(F)F)CC1` (stereo partly drawn) [Example 1002, (R)-1-{1-[4-(2,2-Difluoro-ethylamino)-cyclohexyl]-1,6-dihydro-1,3,5,6-tetraaza-as-indacen-2-yl}-ethanol] were, in that order, 0.97 nM, 111 nM, 22.1 nM and 4.76 nM.
As to `C[C@@H](O)c1nc2cnc3[nH]ccc3c2n1C1CCC(n2ccnn2)CC1` (stereo partly drawn) [Example 1003, (R)-1-[1-(4-[1,2,3]Triazol-1-yl-cyclohexyl)-1,6-dihydro-1,3,5,6-tetraaza-as-indacen-2-yl]-ethanol], the Ki on JAK1 worked out at 5.16 nM; at JAK3, 129 nM; on JAK2, 63.5 nM; on TYK2 it was 38.2 nM.
On to `C[C@@H](O)c1nc2cnc3[nH]ccc3c2n1[C@H]1CC[C@@H](NCC(F)(F)F)C1` [Example 1004, (R)-1-{1-[(1S,3R)-3-(2,2,2-Trifluoro-ethylamino)-cyclopentyl]-1,6-dihydro-1,3,5,6-tetraaza-as-indacen-2-yl}-ethanol], for which the Ki was determined as 1.69 nM at JAK1, 44.4 nM at JAK3, 63 nM at JAK2 and 17 nM on TYK2.
`C[C@@H](O)c1nc2cnc3[nH]ccc3c2n1[C@H]1CC[C@@H](NCC(F)F)C1` [Example 1005, (R)-1-{1-[(1S,3R)-3-(2,2-Difluoro-ethylamino)-cyclopentyl]-1,6-dihydro-1,3,5,6-tetraaza-as-indacen-2-yl}-ethanol]: the Ki on JAK1 is 2.36 nM; on JAK3, 26.3 nM; at JAK2, 86.1 nM; on TYK2, 18.1 nM.
As to `N#CCCC1CCC(n2c(C(O)CO)nc3cnc4[nH]ccc4c32)CC1` (stereo not drawn) [Example 1006, 3-{4-[2-(1,2-Dihydroxy-ethyl)-6H-1,3,5,6-tetraaza-as-indacen-1-yl]-cyclohexyl}-propionitrile], the Ki was 0.8 nM at JAK1, 11.3 nM at JAK3, 4.49 nM at JAK2 and 3.52 nM at TYK2.
For the compound `C[C@@H](O)c1nc2cnc3[nH]ccc3c2n1[C@H]1CC[C@H](NCC(F)(F)F)C1` [Example 1008, (R)-1-{1-[(1S,3S)-3-(2,2,2-Trifluoro-ethylamino)-cyclopentyl]-1,6-dihydro-1,3,5,6-tetraaza-as-indacen-2-yl}-ethanol], the inhibitory constant (Ki) on JAK1 came out at 1.72 nM; at JAK3, 98 nM; at JAK2, 23.9 nM; at TYK2, 7.93 nM.
On to `C[C@@H](O)c1nc2cnc3[nH]ccc3c2n1C1CCC(NCC(F)(F)F)CC1` (stereo partly drawn) [Example 1009, (R)-1-{1-[4-(2,2,2-Trifluoro-ethylamino)-cyclohexyl]-1,6-dihydro-1,3,5,6-tetraaza-as-indacen-2-yl}-ethanol], for which the Ki at JAK1 stood at 59.5 nM; at JAK3, 44 nM; at JAK2 it was 116 nM; at TYK2 it was 75.5 nM.
In the case of `C[C@@H](O)c1nc2cnc3[nH]cc(Br)c3c2n1C1CCC(CC#N)CC1` (stereo partly drawn) [Example 1010, {4-[8-Bromo-2-((R)-1-hydroxy-ethyl)-6H-1,3,5,6-tetraaza-as-indacen-1-yl]-cyclohexyl}-acetonitrile], the Ki on JAK1 was found to be 1.12 nM; at JAK3 it was 0.33 nM; on JAK2, 1.66 nM; at TYK2 it was 2.2 nM.
On the same counts, the results for `C[C@@H](O)c1nc2cnc3[nH]ccc3c2n1[C@H]1COCCC1(F)F` [Example 1011, (R)-1-[1-((S)-4,4-Difluoro-tetrahydro-pyran-3-yl)-1,6-dihydro-1,3,5,6-tetraaza-as-indacen-2-yl]-ethanol] are 18 nM, 79.3 nM, 133 nM and 81.7 nM.
As for `C[C@@H](O)c1nc2cnc3[nH]ccc3c2n1[C@@H]1COCCC1(F)F` [Example 1012, (R)-1-[1-((R)-4,4-Difluoro-tetrahydro-pyran-3-yl)-1,6-dihydro-1,3,5,6-tetraaza-as-indacen-2-yl]-ethanol], the Ki at JAK1 amounted to 9.43 nM; at JAK3, 75.1 nM; at JAK2 it was 103 nM; at TYK2, 45.2 nM.
`COCCN1CC[C@H](n2c([C@@H](C)O)nc3cnc4[nH]ccc4c32)C(F)(F)C1` [Example 1013, (R)-1-{1-[(S)-3,3-Difluoro-1-(2-methoxy-ethyl)-piperidin-4-yl]-1,6-dihydro-1,3,5,6-tetraaza-as-indacen-2-yl}-ethanol]: the inhibition constant Ki was determined as 2.15 nM on JAK1, 28.9 nM on JAK3, 11.1 nM at JAK2 and 11.3 nM at TYK2.
Regarding `COCCN1CC[C@@H](n2c([C@@H](C)O)nc3cnc4[nH]ccc4c32)C(F)(F)C1` [Example 1014, (R)-1-{1-[(R)-3,3-Difluoro-1-(2-methoxy-ethyl)-piperidin-4-yl]-1,6-dihydro-1,3,5,6-tetraaza-as-indacen-2-yl}-ethanol], the inhibition constant (Ki) on JAK1 is 2.53 nM; on JAK3 it was 4.65 nM; at JAK2, 18.6 nM; on TYK2, 45.5 nM.
Take “(1-Cyclohexyl-1,6-dihydro-1,2,3,5,6-tetraaza-as-indacen-2-yl)-methanol-d11 [Example 674]”: the Ki on JAK1 worked out at 1.13 nM; at JAK3 it was 10.5 nM; on JAK2, 7.11 nM; at TYK2 it was 1.87 nM.
Regarding “(R)-1-{1-[1-(3,5-Dimethyl-1H-pyrazol-4-ylmethyl)-piperidin-4-yl]-1,6-dihydro-1,3,5,6-tetraaza-as-indacen-2-yl}-ethanol [Example 904]”, the Ki on JAK1 was determined as 211 nM; at JAK3, 1040 nM; on JAK2 it was 1340 nM; at TYK2, 2650 nM.
For “N-tert-Butyl-2-[1-(tetrahydro-pyran-3-yl)-1,6-dihydro-1,3,5,6-tetraaza-as-indacen-2-yl]-acetamide [Example 964]”, the Ki came to 78.9 nM on JAK1, 164 nM at JAK3, 274 nM on JAK2 and 487 nM on TYK2.
Take “[3-(6H-1,3,5,6-Tetraaza-as-indacen-1-yl)-cyclopentyl]-carbamic acid 2,2,2-trifluoro-ethyl ester [Example 733]”: the Ki was 0.77 nM at JAK1, 5.88 nM at JAK3, 4.83 nM on JAK2 and 37.8 nM at TYK2.
